Measured values taken from PMC6268742, “Flavonoids and Other Compounds from Ouratea ferruginea (Ochnaceae) as Anticancer and Chemopreventive Agents” (Molecules, 2012).
Values joined by “and” are separate entries in the source; they are usually repeats but may differ in a detail not shown here. Identical values can stand only once.

How the values were obtained:
[1] = tested on: cytochrome P450-dependent 7-ethoxycoumarin O-deethylase (ECOD); assay: CYP-catalyzed ethoxycoumarin O-desalkylation (ECOD) inhibition assay with rat liver microsomes; assay type: biochemical; details: rat hepatic microsomes; for ECOD activity: compound 0.08 mg/mL, activity relative to control (DMSO) = 100%
Method: (§1) Male Wistar rats ([…] weight) were obtained from Universidade da Zona Oeste (UEZO). The animals were kept under light- and temperature-controlled conditions and were provided with rodent laboratory chow and water ad libitum. The rats were euthanized prior to the preparation of cytosolic and microsomal fractions. The livers were removed, placed in ice-cold 0.1 M phosphate buffer (pH 7.4) and then homogenized. Fractions were prepared by differential centrifugation and protein content was determined by Peterson’s methods.
(§2) 5,4′-Dihydroxy-7,3′5′-trimethoxyisoflavone (9), 7,3′-di-O-methylorobol (10), piscigenin (11), and sequoiaflavone (15) were accurately weighed. Solutions were prepared at a concentration of 8 mg/mL using DMSO as a solvent. CYP1A and GST assays were used aliquots of 10 µL of solution.
Ethoxycoumarin O-desalkylation by rat liver microsomes was used as a probe to determine CYP1A activity. Ethoxycumarin (1 mM), NADPH (1 mM), magnesium chloride (10 mM) and rat liver microsomes (5.5 μg) were incubated in phosphate buffer (0.1 M), pH 7.8 (0.5 mL ﬁnal volume). Incubations were at 37 °C for 5 min. The reaction was terminated with trichloroacetic acid (TCA) 2.5% followed by centrifugation (1000 g, 10 min). Immediately before ﬂuorescence determination, 2 mL of glycine-NaOH buffer were added and fluorescence of cumarin was determined (excitation: 390 nm and emission 440 nm). CYP activity was calculated as amount of produced cumarin per minute per protein mg. Assays containing phytochemicals were compared with control with DMSO (dimethylsulfoxide).

[2] = tested on: glutathione S-transferase (GST); assay: Glutathione S-transferase (GST) inhibition assay (CDNB conjugation) with rat hepatic cytosolic fraction; assay type: biochemical; details: for inhibition of GST activity: 0.08 mg/mL; for GST activity: compound 0.08 mg/mL, activity relative to control (DMSO), CDNB substrate
Method: as §1, §2
The conjugation of glutathione to 1-chloro-2,4,-dinitrobenzene (CDNB) was measured as a non-speciﬁc substrate for GST activity. To a quartz cuvette reduced cytosolic fraction (10 μg), CDNB (2 mM) and 100 mM potassium phosphate buffer (pH 6.1) were added in a ﬁnal volume of 1 mL. The cuvette was placed in a spectrophotometer and the reaction initiated by the addition of glutathione (5 mM). The increase in absorbance at 340 nm over a 3 min period was measured at room temperature. An extinction coefﬁcient of […] was used to determine activity from the initial slope of the reaction. GST activity was calculated as amount of produced conjugated per minute per protein mg. Assays containing phytochemicals were compared with control with DMSO (dimethylsulfoxide).

CYP1A1 = tested on: CYP1A1; parameters: method as in PMID 15661813; details: HepG2 cell; cited from earlier work
[3] = tested on: 7-ethoxycoumarin O-deethylase (ECOD); parameters: method as in PMID 9522437; details: liver microsomes from rats treated with 3-methylcholanthrene; cited from earlier work

Molecule | ECOD activity [1] | inhibition of GST activity [2] | GST activity [2] [%] | inhibition of ECOD activity ([1]; compared with control 100%, 0.08 mg/mL) [%] | CYP1A1 EROD activity (CYP1A1) | effect on microsomal ECOD activity [3]
COc1cc(O)c2c(=O)c(-c3cc(OC)c(O)c(OC)c3)coc2c1 [Compound 9, 5,4′-dihydroxy-7,5′,3′-trimethoxyisoflavone] | 66.9 ±27.7% | ~75% | 25.3 ±5.3 | – | – | –
COc1cc(O)c2c(=O)c(-c3ccc(O)c(OC)c3)coc2c1 [Compound 10, 7,3′-di-O-methylorobol] | 77.8 ± 11.6% | not observed | – | – | – | –
COc1cc(-c2coc3cc(O)cc(O)c3c2=O)cc(OC)c1O [Compound 11, piscigenin] | 53.5 ± 12.4% | ~70% | 32.2 ±1.3 | – | – | –
COc1cc(O)c2c(=O)cc(-c3ccc(O)c(-c4c(O)cc(O)c5c(=O)cc(-c6ccc(O)cc6)oc45)c3)oc2c1 [Compound 15, sequoiaflavone] | 24.8% and 24.8 ± 1.2% | – | 77.4 ± 6.7 | 75 | – | –
COc1cc(OC)c2c(=O)cc(-c3ccccc3)oc2c1 [DMF, 5,7-Dimethoxyflavone] | – | – | – | – | virtually down to zero | –
(±)-catechin | – | – | – | – | – | no effect
